Results from ChEMBL document CHEMBL1201862, “PubChem BioAssay data set” (2004).
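96-well plates; 48 h exposure; 5 concentrations. Endpoints by linear interpolation between flanking doses. Not reached: highest tested concentration assigned. The concentration for 50% growth inhibition is given as GI50.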 The source made the active and inactive calls. Rule as the data show it: active = GI50 up to about 1.1 µM and inactive = higher.

Tests used:
Assay in all cases: DTP human tumour cell line panel, 48 h
[1] = system: 786-0
[2] = system: A498
[3] = system: A549
[4] = system: ACHN
[5] = system: BT-549
[6] = system: CAKI-1
[7] = system: CCRF-CEM
[8] = system: COLO 205
[9] = system: DU-145
[10] = system: EKVX
[11] = system: HCC 2998
[12] = system: HCT-116
[13] = system: HCT-15
[14] = system: HL-60
[15] = system: HOP-62
[16] = system: HOP-92
[17] = system: HT-29
[18] = system: Hs-578T
[19] = system: IGROV-1
[20] = system: K562
[21] = system: KM12
[22] = system: M14
[23] = system: MCF7
[24] = system: MDA-MB-435
[25] = system: MDA-N
[26] = system: MOLT-4
[27] = system: Malme-3M
[28] = system: NCI-H226
[29] = system: NCI-H23
[30] = system: NCI-H460
[31] = system: NCI-H522
[32] = system: NCI/ADR-RES
[33] = system: OVCAR-3
[34] = system: OVCAR-4
[35] = system: OVCAR-5
[36] = system: OVCAR-8
[37] = system: PC-3
[38] = system: RXF 393
[39] = system: SF-268
[40] = system: SF-295
[41] = system: SF-539
[42] = system: SK-MEL-2
[43] = system: SK-MEL-5
[44] = system: SK-OV-3
[45] = system: SN12C
[46] = system: SNB-19
[47] = system: SNB-75
[48] = system: SR
[49] = system: SW-620
[50] = system: T47D
[51] = system: TK-10
[52] = system: U-251
[53] = system: UACC-257
[54] = system: UACC-62
[55] = system: UO-31

Compound: O=S(=O)(O)c1ccc2cc(/N=N/c3c(O)ccc4ccccc34)ccc2c1
- GI50 [1]: > 100 µM (inactive)
- GI50 [2]: > 100 µM (inactive)
- GI50 [3]: > 100 µM (inactive)
- GI50 [4]: > 100 µM (inactive)
- GI50 [5]: > 100 µM (inactive)
- GI50 [6]: > 100 µM (inactive)
- GI50 [7]: > 100 µM (inactive)
- GI50 [8]: > 100 µM (inactive)
- GI50 [9]: > 100 µM (inactive)
- GI50 [10]: > 100 µM (inactive)
- GI50 [11]: > 100 µM (inactive)
- GI50 [12]: > 100 µM (inactive)
- GI50 [13]: > 100 µM
- GI50 [14]: > 100 µM (inactive)
- GI50 [15]: > 100 µM (inactive)
- GI50 [16]: > 100 µM (inactive)
- GI50 [17]: > 100 µM (inactive)
- GI50 [18]: 69.2 µM (inactive)
- GI50 [19]: > 100 µM (inactive)
- GI50 [20]: > 100 µM (inactive)
- GI50 [21]: 97.5 µM (inactive)
- GI50 [22]: > 100 µM (inactive)
- GI50 [23]: > 100 µM (inactive)
- GI50 [24]: > 100 µM (inactive)
- GI50 [25]: > 100 µM (inactive)
- GI50 [26]: > 100 µM (inactive)
- GI50 [27]: 82.6 µM (inactive)
- GI50 [28]: > 100 µM (inactive)
- GI50 [29]: > 100 µM (inactive)
- GI50 [30]: > 100 µM (inactive)
- GI50 [31]: > 100 µM (inactive)
- GI50 [32]: > 100 µM (inactive)
- GI50 [33]: > 100 µM (inactive)
- GI50 [34]: > 100 µM (inactive)
- GI50 [35]: > 100 µM (inactive)
- GI50 [36]: > 100 µM (inactive)
- GI50 [37]: > 100 µM (inactive)
- GI50 [38]: > 100 µM (inactive)
- GI50 [39]: > 100 µM (inactive)
- GI50 [40]: > 100 µM (inactive)
- GI50 [41]: > 100 µM (inactive)
- GI50 [42]: > 100 µM (inactive)
- GI50 [43]: > 100 µM (inactive)
- GI50 [44]: > 100 µM (inactive)
- GI50 [45]: > 100 µM (inactive)
- GI50 [46]: > 100 µM (inactive)
- GI50 [47]: > 100 µM (inactive)
- GI50 [48]: > 100 µM (inactive)
- GI50 [49]: > 100 µM (inactive)
- GI50 [50]: > 100 µM (inactive)
- GI50 [51]: > 100 µM (inactive)
- GI50 [52]: > 100 µM (inactive)
- GI50 [53]: > 100 µM (inactive)
- GI50 [54]: > 100 µM (inactive)
- GI50 [55]: > 100 µM (inactive)
